Test results reported in PubChem BioAssay (NCI).
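All cell lines were grown in 96-well plates and treated with compound for 48 hours. TGI denotes the concentration required for complete inhibition of growth.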

Assays:
Assay in all cases: DTP human tumour cell line panel, 48 h
A498 renal = tested on: A498 renal
ACHN renal = tested on: ACHN renal
CAKI-1 renal = tested on: CAKI-1 renal
EKVX NSCLC = tested on: EKVX NSCLC
HCT-116 colon = tested on: HCT-116 colon
HCT-15 colon = tested on: HCT-15 colon
HOP-62 NSCLC = tested on: HOP-62 NSCLC
HT29 colon = tested on: HT29 colon
IGROV1 ovarian = tested on: IGROV1 ovarian
M14 melanoma = tested on: M14 melanoma
MDA-MB-231 breast = tested on: MDA-MB-231 breast
MDA-MB-435 = tested on: MDA-MB-435
NCI/ADR-RES ovarian = tested on: NCI/ADR-RES ovarian
OVCAR-4 ovarian = tested on: OVCAR-4 ovarian
PC-3 prostate = tested on: PC-3 prostate
SF-268 CNS = tested on: SF-268 CNS
SF-539 CNS = tested on: SF-539 CNS
SW-620 colon = tested on: SW-620 colon
UACC-257 melanoma = tested on: UACC-257 melanoma

## COC(=O)C1=C(OC(=O)/C(=C/c2ccccc2)c2ccc(Cl)cc2)C(C(=O)OC)[C@@]2(O)[C@@H](C(=O)OC)[C@H](C)C[C@@H]1[C@@H]2C(=O)OC (some centres not stated)
A498 renal
  TGI: > 100 µM
ACHN renal
  TGI: > 100 µM
CAKI-1 renal
  TGI: > 100 µM
EKVX NSCLC
  TGI: > 100 µM
HCT-116 colon
  TGI: > 100 µM
HCT-15 colon
  TGI: > 100 µM
HOP-62 NSCLC
  TGI: > 100 µM
HT29 colon
  TGI: > 100 µM
IGROV1 ovarian
  TGI: > 100 µM
M14 melanoma
  TGI: > 100 µM
MDA-MB-231 breast
  TGI: > 100 µM
MDA-MB-435
  TGI: > 100 µM
NCI/ADR-RES ovarian
  TGI: > 100 µM
OVCAR-4 ovarian
  TGI: > 100 µM
PC-3 prostate
  TGI: > 100 µM
SF-268 CNS
  TGI: > 100 µM
SF-539 CNS
  TGI: > 100 µM
SW-620 colon
  TGI: > 100 µM
UACC-257 melanoma
  TGI: > 100 µM

## CNC(=O)NCCN1CC2CCC(CC2)C1
A498 renal
  TGI: > 10 µM
ACHN renal
  TGI: > 10 µM
CAKI-1 renal
  TGI: > 10 µM
EKVX NSCLC
  TGI: > 10 µM
HCT-116 colon
  TGI: > 10 µM
HCT-15 colon
  TGI: > 10 µM
HOP-62 NSCLC
  TGI: > 10 µM
HT29 colon
  TGI: > 10 µM
IGROV1 ovarian
  TGI: > 10 µM
M14 melanoma
  TGI: > 10 µM
MDA-MB-231 breast
  TGI: > 10 µM
MDA-MB-435
  TGI: > 10 µM
NCI/ADR-RES ovarian
  TGI: > 10 µM
OVCAR-4 ovarian
  TGI: > 10 µM
PC-3 prostate
  TGI: > 10 µM
SF-268 CNS
  TGI: > 10 µM
SF-539 CNS
  TGI: > 10 µM
SW-620 colon
  TGI: > 10 µM
UACC-257 melanoma
  TGI: > 10 µM

## Cc1c2c(OCC(O)CN3CCN(c4ccccc4)CC3)nn(C)c(=O)c2c(C)n1-c1ccccc1 (configuration not stated)
A498 renal
  TGI: 58.6 µM
ACHN renal
  TGI: 49.6 µM
CAKI-1 renal
  TGI: > 100 µM
EKVX NSCLC
  TGI: > 100 µM
HCT-116 colon
  TGI: 31.3 µM
HCT-15 colon
  TGI: 43.5 µM
HOP-62 NSCLC
  TGI: > 100 µM
HT29 colon
  TGI: 46.3 µM
IGROV1 ovarian
  TGI: > 100 µM
M14 melanoma
  TGI: 30.7 µM
MDA-MB-231 breast
  TGI: 69.6 µM
MDA-MB-435
  TGI: 91.8 µM
NCI/ADR-RES ovarian
  TGI: 63.8 µM
OVCAR-4 ovarian
  TGI: > 100 µM
PC-3 prostate
  TGI: 55.9 µM
SF-268 CNS
  TGI: 73.5 µM
SF-539 CNS
  TGI: 33.6 µM
SW-620 colon
  TGI: 98.8 µM
UACC-257 melanoma
  TGI: 72.1 µM

## COc1ccc(OC)c(C2CCc3c(cnc4nc(N)nc(N)c34)C2)c1 (configuration not stated)
A498 renal
  TGI: 27.4 µM
ACHN renal
  TGI: 17.2 µM
CAKI-1 renal
  TGI: 29.1 µM
EKVX NSCLC
  TGI: 24.2 µM
HCT-116 colon
  TGI: 14.2 µM
HCT-15 colon
  TGI: 28.4 µM
HOP-62 NSCLC
  TGI: 26.8 µM
HT29 colon
  TGI: 16.2 µM
IGROV1 ovarian
  TGI: 17.5 µM
M14 melanoma
  TGI: 17.3 µM
MDA-MB-231 breast
  TGI: 29.2 µM
MDA-MB-435
  TGI: 17.1 µM
NCI/ADR-RES ovarian
  TGI: > 100 µM
OVCAR-4 ovarian
  TGI: 23.5 µM
PC-3 prostate
  TGI: 27.5 µM
SF-268 CNS
  TGI: 18.9 µM
SF-539 CNS
  TGI: 89.1 µM
SW-620 colon
  TGI: 37.2 µM
UACC-257 melanoma
  TGI: 23.4 µM

## CC(Oc1ccccc1Cl)C(=O)NN1C(=O)CC(=O)NC1=S (configuration not stated)
A498 renal
  TGI: > 100 µM
ACHN renal
  TGI: > 100 µM
CAKI-1 renal
  TGI: > 100 µM
EKVX NSCLC
  TGI: > 100 µM
HCT-116 colon
  TGI: > 100 µM
HCT-15 colon
  TGI: > 100 µM
HOP-62 NSCLC
  TGI: > 100 µM
HT29 colon
  TGI: > 100 µM
IGROV1 ovarian
  TGI: > 100 µM
M14 melanoma
  TGI: > 100 µM
MDA-MB-231 breast
  TGI: > 100 µM
MDA-MB-435
  TGI: > 100 µM
NCI/ADR-RES ovarian
  TGI: > 100 µM
OVCAR-4 ovarian
  TGI: > 100 µM
PC-3 prostate
  TGI: > 100 µM
SF-268 CNS
  TGI: > 100 µM
SF-539 CNS
  TGI: > 100 µM
SW-620 colon
  TGI: > 100 µM
UACC-257 melanoma
  TGI: > 100 µM

## COc1ccc2[nH]cc(C(=O)C(=O)NC34CC5CC(CC(C5)C3)C4)c2c1
A498 renal
  TGI: > 76.1 µM
ACHN renal
  TGI: > 100 µM
CAKI-1 renal
  TGI: > 100 µM
EKVX NSCLC
  TGI: > 100 µM
HCT-116 colon
  TGI: > 100 µM
HCT-15 colon
  TGI: > 90.3 µM
HOP-62 NSCLC
  TGI: 74.7 µM
HT29 colon
  TGI: 5.32 µM
IGROV1 ovarian
  TGI: > 100 µM
M14 melanoma
  TGI: > 100 µM
MDA-MB-231 breast
  TGI: 97.9 µM
MDA-MB-435
  TGI: > 100 µM
NCI/ADR-RES ovarian
  TGI: > 100 µM
OVCAR-4 ovarian
  TGI: > 100 µM
PC-3 prostate
  TGI: > 100 µM
SF-268 CNS
  TGI: > 100 µM
SF-539 CNS
  TGI: > 81.1 µM
SW-620 colon
  TGI: > 100 µM
UACC-257 melanoma
  TGI: > 100 µM

## OC[P+](CO)(CO)C12CC3CC(CC(C3)C1)C2
A498 renal
  TGI: > 100 µM
ACHN renal
  TGI: > 100 µM
CAKI-1 renal
  TGI: > 100 µM
EKVX NSCLC
  TGI: > 100 µM
HCT-116 colon
  TGI: > 100 µM
HCT-15 colon
  TGI: > 100 µM
HOP-62 NSCLC
  TGI: > 100 µM
HT29 colon
  TGI: > 100 µM
IGROV1 ovarian
  TGI: > 100 µM
M14 melanoma
  TGI: > 100 µM
MDA-MB-231 breast
  TGI: > 100 µM
MDA-MB-435
  TGI: > 100 µM
NCI/ADR-RES ovarian
  TGI: > 100 µM
OVCAR-4 ovarian
  TGI: > 100 µM
PC-3 prostate
  TGI: > 100 µM
SF-268 CNS
  TGI: > 100 µM
SF-539 CNS
  TGI: > 100 µM
SW-620 colon
  TGI: > 100 µM
UACC-257 melanoma
  TGI: > 100 µM

## COC(=O)C1=C(OC(=O)c2ccccc2)C(C(=O)OC)[C@@]2(O)[C@@H](C(=O)OC)[C@H](C)C[C@@H]1[C@@H]2C(=O)OC (some centres not stated)
A498 renal
  TGI: 94.5 µM
ACHN renal
  TGI: > 100 µM
CAKI-1 renal
  TGI: > 100 µM
EKVX NSCLC
  TGI: > 100 µM
HCT-116 colon
  TGI: > 100 µM
HCT-15 colon
  TGI: > 100 µM
HOP-62 NSCLC
  TGI: > 100 µM
HT29 colon
  TGI: > 100 µM
IGROV1 ovarian
  TGI: > 100 µM
M14 melanoma
  TGI: > 100 µM
MDA-MB-231 breast
  TGI: > 100 µM
MDA-MB-435
  TGI: > 100 µM
NCI/ADR-RES ovarian
  TGI: 44.8 µM
OVCAR-4 ovarian
  TGI: > 100 µM
PC-3 prostate
  TGI: > 100 µM
SF-268 CNS
  TGI: > 100 µM
SF-539 CNS
  TGI: 34.5 µM
SW-620 colon
  TGI: > 100 µM
UACC-257 melanoma
  TGI: > 100 µM
